Values quoted from earlier work as cited in patent publication US20230233522A1, “COMPOSITIONS AND METHODS FOR TREATING EPILEPSY, SEIZURES AND OTHER CONDITIONS” (TULEX PHARMACEUTICALS INC., priority 2019, published 2023).

solubility in water: about 9.8 mg/ml
SMILES: CC1(C)O[C@@H]2[C@@H](CO[C@@]3(COS(N)(=O)=O)OC(C)(C)O[C@@H]23)O1 [Topiramate, 2,3:4,5-Di-O-isopropylidine-β-D-fructopyranose sulfamate]
